Laboratory results reported in article PMC10808766, “Optimizing drug discovery for snakebite envenoming via a high-throughput phospholipase A2 screening platform” (Frontiers in Pharmacology, 2024).
Where a name gives a salt, the structure may show the parent alone. Read-outs that look alike come from different tables or passages of the source.

Experiments:
[1] = set-up: method as in Liu et al., 1987; Coutinho et al., 2000; settings: dose of up to 20 mg/day, trialled in the 1970s in China; ref Liu et al., 1987; Coutinho et al., 2000; cited from earlier work
[2] = test system: PLA2 activity of D. russelii venom; assay: Miniaturised 384-well colorimetric sPLA2 assay, D. russelii venom; format: biochemical, Daboia russelii; settings: for mean inhibition between screen and rescreen / Percent inhibition (PLA2) Rescreen: 10 µM; for mean inhibition between screen and rescreen: D. russelii venom; for EC50: 2-fold dilutions 10 µM to 5 pM, n = 4; for Percentage of Inhibition: Table S1, strong hits, value used for ligand efficiency metrics; for Percent inhibition (PLA2) Original: primary screen, 10 µM drug, single point, relative to varespladib (100%) and DMSO (0%); for Percent inhibition (PLA2) Original / Percent inhibition (PLA2) Rescreen / venom PLA2 activity in presence of compound: 20 ng/well D. russelii venom; for Percent inhibition (PLA2) Rescreen: rescreen of library hits, average of rescreen (2 ≤ n ≤ 4); for venom PLA2 activity in presence of compound: interleaved validation plates, 10 µM compound
Experimental: Once hydrolysed, this substrate yields a free thiol group that interacts with 5,5′-dithio-bis-(2-nitrobenzoic acid) (DTNB), which is then converted into 2-nitro-5-thiobenzoic acid, causing a change in colour which is measurable at 405 nm. This conversion is measured kinetically and occurs at a linear rate until the substrate is exhausted, at which point the absorbance plateaus. Appropriate PLA2 concentrations are determined to fit within the linear range of the assay and a bee venom positive control is included with the kit. The assay is designed for 96-well plates and is quite costly at GBP£440/96 tests at the time of writing. We wanted to adapt and miniaturise this methodology for high-throughput screening of PLA2 activity and inhibition in 384-well plates to decrease cost and increase output, without compromising assay robustness.
Prior to conducting drug library screens, it was important to assess whether any drift or edge effects occurred in our setup. […] These consisted of full rows of these compounds in a repeating pattern (e.g., DMSO was in rows A, E, I, M, buffer was in rows B, F, J, N, etc.) on a 384-well plate. The assay was conducted as previously described using 20 ng/well of D. russelii venom across the plate. This was repeated three times on different days. To determine PLA2 activity under each of these conditions, the slope of each reaction was calculated by dividing the difference in absorbance at 405 nm between the first two time points in the linear range (tn–t0) by time (in min) where tn was 2 min 41 s in this case. These values were then inputted into the following equation: A µmol/min×mL=slope×0.045/4.6×0.01 where A represents venom activity, 0.045 is a factor representing the total volume of the assay (45 µL), 4.6 is the extinction coefficient of DTNB in 384-well plates, and 0.01 represents the sample size of 10 µL. This activity is then converted into specific activity by dividing the overall activity to the amount of venom in the reaction in micrograms.
Once in house this library was formatted as 11 × 384-well stock plates containing drugs at a concentration of 1 mM in DMSO. […] Assay-ready plates (ARPs) were made by transferring 0.5 µL from each well of the stock plates onto new 384-well plates, so that the layout of the ARP matched that of the stock plate. Venom was added at 10 µL per well (20 ng venom/well) across the plate, except for column 24 which received 10 µL of assay buffer. These latter wells containing control drugs and assay buffer served as the blank. The plates were incubated for 25 min at 37°C, then left to reach room temperature for 5 min. […] The data were analysed as above by calculating the slopes of all reactions on the plate. The average of the slopes of the blanks was then subtracted from each of these values, and specific activity calculated as described and expressed as µmol/min/mL/µg of venom.
These experiments were conducted and analysed as above, with n = 4 repeats per compound.

[3] = test system: PLA2 activity of N. nigricollis venom; assay: Miniaturised 384-well colorimetric sPLA2 assay, N. nigricollis venom; settings: for % inhibition: N. nigricollis: re-sourced drugs, 10 µM, 5 ng venom, varespladib normalised as 100%
Experimental: (§1) The final concentrations of DTNB and that of the substrate in the assay were 0.44 and 0.88 mM, respectively.
(§2) Then, 10 µL of snake venom at a concentration appropriate for the venom being screened was added to the plates using the VIAFLO384 and the plates were sealed with adhesive plate seals (Greiner BioOne), spun down and incubated for 25 min at 37°C. To prevent the degradation of any potential photolabile compounds, the plates were wrapped in aluminium foil prior to the incubation step. The plates were then taken out of the incubator and left to acclimatise at room temperature for 5 min.
(§3) To determine percentage inhibition relative to the positive and negative controls we applied the following formula: % inhibition= A− µ pos/µ neg− µ pos×100 where A represents specific activity as determined for each sample, and µ (pos) and µ (neg) represent the means of the specific activity in the positive and negative controls, respectively.
(§4) Drugs were plated as before, starting at 10 µM followed by 2-fold dilutions down to 5 pM, with each dilution series plated in quadruplicate. The data were analysed and expressed as described above and the percentage PLA2 inhibition values were used to generate EC50s in Graphpad Prism 9 using a nonlinear regression to fit the dose-response inhibition curve.

[4] = set-up: method as in Beaudoin, 1985; settings: ref Beaudoin, 1985; cited from earlier work
[5] = test system: non-small cell lung carcinoma cells; set-up: method as in Wang et al., 2018; settings: ref Wang et al., 2018; cited from earlier work
[6] = test system: PLA2 activity of N. naja venom; assay: Miniaturised 384-well colorimetric sPLA2 assay, N. naja venom; settings: re-sourced drugs, 10 µM, 40 ng venom, varespladib normalised as 100%
Experimental: as §1, §2, §3

secreted PLA2 = test system: secreted PLA2; set-up: method as in Yu et al., 1997; settings: ref Yu et al., 1997; cited from earlier work
[7] = test system: PLA2 activity of C. durissus terrificus venom; assay: Miniaturised 384-well colorimetric sPLA2 assay, C. durissus terrificus venom; settings: for EC50: read-out: EC50 (nM) C. durissus terrificus, 2-fold dilutions 10 µM to 5 pM, n = 4; for % inhibition: C. durissus terrificus: re-sourced drugs, 10 µM, 12.5 ng venom, varespladib normalised as 100%
Experimental: as §1, §2, §3, §4

[8] = test system: PLA2 activity of D. russelii venom; assay: Miniaturised 384-well colorimetric sPLA2 assay, D. russelii venom; format: biochemical, Daboia russelii; settings: re-sourced drugs, 10 µM, 30 ng venom, varespladib normalised as 100%
[9] = test system: PLA2 activity of B. arietans venom; assay: Miniaturised 384-well colorimetric sPLA2 assay, B. arietans venom; settings: re-sourced drugs, 10 µM, 40 ng venom, varespladib normalised as 100%
Experimental: as §1, §2, §3

[10] = test system: PLA2 activity of C. durissus terrificus venom; set-up: method as in Cotrim et al., 2011; settings: ref Cotrim et al., 2011; cited from earlier work
[11] = test system: PLA2 activity of C. atrox venom; assay: Miniaturised 384-well colorimetric sPLA2 assay, C. atrox venom; settings: re-sourced drugs, 10 µM, 30 ng venom, varespladib normalised as 100%
Experimental: as §1, §2, §3

[12] = set-up: method as in Cerdá et al., 2003; settings: ref Cerdá et al., 2003; cited from earlier work
[13] = read-out: EC50 (nM) D. russelii

Which results are given for `Cc1cc2c(C(C)C)c(O)c(O)c(C=O)c2c(O)c1-c1c(C)cc2c(C(C)C)c(O)c(O)c(C=O)c2c1O` [Gossypol]?
efficacy and tolerability as male contraceptive [1]: efficacious and well tolerated; mean inhibition between screen and rescreen [2]: 76.6%; EC50 [2, 13]: 94.1 nM; % inhibition: N. nigricollis [3]: 64%; teratogenicity [4]: non-teratogenic; proliferation in non-small cell lung carcinoma cells [5]: inhibited proliferation; % inhibition: N naja [6]: 30%; inhibition of secreted PLA2 activity (secreted PLA2): reported inhibition of secreted PLA2 activity; EC50 [7]: 69.1 nM

With `CC(=O)Oc1cc2c(s1)CCN(C(C(=O)C1CC1)c1ccccc1F)C2` (stereo not drawn) [Prasugrel (hydrochloride), prasugrel hydrochloride] as the compound, how does the “% inhibition: D. russelii” value [8] read?
Its value is “above 72%”.

And the “mean inhibition between screen and rescreen” value [2]?
Its value is 83.9%.

And the “Percentage of Inhibition” value [2]?
Its value is 89.92.

For `O=c1c(O)c(-c2ccc(O)c(O)c2)oc2cc(O)cc(O)c12` [Quercetin (dihydrate), quercetin dihydrate], which “% inhibition: B. arietans” value [9] is on record?
Its value is under 15%.

And the “% inhibition: D. russelii” value [8]?
The value was 42%.

What about the “Percent inhibition (PLA2) Original” value [2] of the same compound?
The value was over 70%.

What about the “Percent inhibition (PLA2) Rescreen” value [2] of the same compound?
Its value is “failed to inhibit”.

And the “% inhibition: N. nigricollis” value [3]?
The value was under 15%.

And the “% inhibition: N naja” value [6]?
The value was under 15%.

And the “inhibition of enzymatic PLA2s from C. durissus terrificus venom” value [10]?
Its value is “previously shown to inhibit”.

What about the “% inhibition: C. atrox” value [11] of the same compound?
Its value is under 15%.

And the “% inhibition: C. durissus terrificus” value [7]?
The value was about 65%.

Which “% inhibition: B. arietans” value [9] does the source give for `CCc1c(C(=O)C(N)=O)c2c(OCC(=O)O)cccc2n1Cc1ccccc1` [Varespladib] here?
Its value is “reducing readings to control levels”.

And the “% inhibition: D. russelii” value [8]?
Its value is “reducing readings to control levels”.

What about the “inhibition of venom PLA2 activity (reaction rate)” value ([2]; 10 µM varespladib, viper venom, Figure 1B) of the same compound?
The value was “inhibited venom activity to baseline readings”.

And the EC50 ([2]; text value in pM, read-out: EC50 against D. russelii venom)?
The EC50 was 0.5 nM.

And the “venom PLA2 activity in presence of compound” value [2]?
The value was “dropped sharply”.

What about the “Percent inhibition (PLA2) Original” value [2] of the same compound?
The value was over 99%.

What about the “inhibition of venom PLA2 activity (reaction rate)” value ([3]; 10 µM varespladib, elapid venom, Figure 1B) of the same compound?
The value was “inhibited venom activity to baseline readings”.

What about the “% inhibition: N. nigricollis” value [3] of the same compound?
The value was “reducing readings to control levels”.

What about the “% inhibition: N naja” value [6] of the same compound?
Its value is “reducing readings to control levels”.

What about the “% inhibition: C. atrox” value [11] of the same compound?
The value was “reducing readings to control levels”.

What about the “% inhibition: C. durissus terrificus” value [7] of the same compound?
The value was “reducing readings to control levels”.

And the EC50 [7]?
The EC50 was 5.5 nM.

For `CC1(C)C2CCC1(C)C(O)C2` (racemic) [DL-Borneol], which “% inhibition: B. arietans” value [9] is on record?
The value was “did not re-test as a hit”.

And the “% inhibition: D. russelii” value [8]?
Its value is “did not re-test as a hit”.

What about the “mean inhibition between screen and rescreen” value [2] of the same compound?
Its value is 95.1%.

And the “% inhibition: N. nigricollis” value [3]?
The value was “did not re-test as a hit”.

And the “% inhibition: N naja” value [6]?
Its value is “did not re-test as a hit”.

What about the “% inhibition: C. atrox” value [11] of the same compound?
Its value is “did not re-test as a hit”.

And the “% inhibition: C. durissus terrificus” value [7]?
Its value is “did not re-test as a hit”.

For `CNC(=O)[C@@H](NC(=O)[C@H](CC(C)C)[C@H](O)C(=O)NO)C(C)(C)C` [Marimastat, marimastat], which “venom PLA2 activity in presence of compound” value [2] is on record?
Its value is 6–8 μmol/min/mL/µg venom.

For `CC(=O)O.Cc1cc2c(C(C)C)c(O)c(O)c(C=O)c2c(O)c1-c1c(C)cc2c(C(C)C)c(O)c(O)c(C=O)c2c1O`, which “mean inhibition between screen and rescreen” value [2] is on record?
Its value is 89.2%.

For `O=C1O[C@H]2[C@@H]3OC(=O)c4cc(O)c(O)c(O)c4-c4c(O)c(O)c5oc(=O)c6c(c(O)c(O)c7oc(=O)c4c5c76)-c4c(cc(O)c(O)c4O)C(=O)OC[C@H]3OC(O)[C@@H]2OC(=O)c2cc(O)c(O)c(O)c2-c2c1cc(O)c(O)c2O` (mixture of isomers) [Punicalagin, punicalagin], which “% inhibition: D. russelii” value [8] is on record?
Its value is “above 72%”.

And the “mean inhibition between screen and rescreen” value [2]?
Its value is 71.7%.

What about the EC50 [2, 13] of the same compound?
Its EC50 is 559 nM.

What about the “Percentage of Inhibition” value [2] of the same compound?
The value was 83.82.

What about the EC50 ([3]; read-out: EC50 (nM) N. nigricollis, 2-fold dilutions 10 µM to 5 pM, n = 4) of the same compound?
Its EC50 is 270 nM.

And the “toxicity at high doses in rodents” value [12]?
Its value is “non-toxic”.

And the EC50 [7]?
Its EC50 is 167 nM.

Which “mean inhibition between screen and rescreen” value [2] does the source give for Tannic acid here?
Its value is 92.1%.

With `O=C(/C=C/c1ccc(O)c(O)c1/C=C/c1ccc(O)c(O)c1)O[C@H](Cc1ccc(O)c(O)c1)C(=O)O` [Salvianolic acid A] as the compound, how does the “Percent inhibition (PLA2) Rescreen” value [2] read?
The value was “failed to reproducibly inhibit”.
